In ChEMBL document CHEMBL1759955, “6-Benzoyl-3-hydroxypyrimidine-2,4-diones as dual inhibitors of HIV reverse transcriptase and integrase” (Bioorg Med Chem Lett, 2011):

Biological target: Human immunodeficiency virus type 1 reverse transcriptase (Human immunodeficiency virus 1) (UniProt Q72547)
Experiment: Inhibition of HIV-1 reverse transcriptase at 100 uM
Conditions: not given
For `CCc1c(C(=O)c2cc(C)cc(C)c2)n(COCCc2ccc(F)cc2)c(=O)n(O)c1=O`, the inhibition was 74%. For `CCc1c(C(=O)c2cc(C)cc(C)c2)n(COCc2ccccc2)c(=O)n(O)c1=O`, the inhibition was 92%. `CCc1c(C(=O)c2ccccc2)n(COCCc2ccc(F)cc2)c(=O)n(O)c1=O` showed an inhibition of 46%. Molecule `CCOCn1c(C(=O)c2cc(C)cc(C)c2)c(CC)c(=O)n(O)c1=O` has an inhibition of 94%.

System: Human immunodeficiency virus 1
Experiment: Antiviral activity against HIV-1 3B infected in human CEM-SS cells assessed as protection against virus induced cytopathic effect at 10 uM
Format: functional
Conditions: Human immunodeficiency virus 1, 3B
With `CCOCn1c(C(=O)c2ccccc2)c(CC)c(=O)n(O)c1=O` the inhibition at 10 µM was 100%. With `CCc1c(C(=O)c2ccccc2)n(COCc2ccccc2)c(=O)n(O)c1=O` the inhibition at 10 µM was 100%. Work on `CCc1c(C(=O)c2cc(C)cc(C)c2)n(COCCc2ccc(F)cc2)c(=O)n(O)c1=O` yielded an inhibition at 10 µM of 56%. In the case of `CCc1c(C(=O)c2ccccc2)n(COCc2ccc(F)cc2)c(=O)n(O)c1=O`, the inhibition at 10 µM is reported as 100%. `CCc1c(C(=O)c2cc(C)cc(C)c2)n(COCc2ccccc2)c(=O)n(O)c1=O` showed an inhibition at 10 µM of 100%. Work on `CCc1c(C(=O)c2cc(C)cc(C)c2)n(COCc2ccc(F)cc2)c(=O)n(O)c1=O` yielded an inhibition at 10 µM of 100%. For `CCc1c(C(=O)c2ccccc2)n(COCCc2ccc(F)cc2)c(=O)n(O)c1=O`, the inhibition at 10 µM was 100%. In the case of `CCOCn1c(C(=O)c2cc(C)cc(C)c2)c(CC)c(=O)n(O)c1=O`, the inhibition at 10 µM is reported as 100%.

Biological target: Human immunodeficiency virus type 1 reverse transcriptase (Human immunodeficiency virus 1) (UniProt Q72547)
Experiment: Inhibition of HIV-1 reverse transcriptase at 10 uM
Conditions: not given
`CCc1c(C(=O)c2cc(C)cc(C)c2)n(COCCc2ccc(F)cc2)c(=O)n(O)c1=O` gave an inhibition of 60%. `CCc1c(C(=O)c2cc(C)cc(C)c2)n(COCc2ccccc2)c(=O)n(O)c1=O` showed an inhibition of 79%. Molecule `CCc1c(C(=O)c2ccccc2)n(COCCc2ccc(F)cc2)c(=O)n(O)c1=O` has an inhibition of 4%. `CCOCn1c(C(=O)c2cc(C)cc(C)c2)c(CC)c(=O)n(O)c1=O` gave an inhibition of 61%.

System: CEM-SS
Experiment: Cytotoxicity against human CEM-SS cells assessed as viable cells at 10 uM
Format: cell-based
Conditions: not given
With `CCOCn1c(C(=O)c2ccccc2)c(CC)c(=O)n(O)c1=O` the Activity was 100%. Molecule `CCc1c(C(=O)c2ccccc2)n(COCc2ccccc2)c(=O)n(O)c1=O` has an Activity of 98%. `CCc1c(C(=O)c2cc(C)cc(C)c2)n(COCCc2ccc(F)cc2)c(=O)n(O)c1=O` showed an Activity of 81%. Work on `CCc1c(C(=O)c2ccccc2)n(COCc2ccc(F)cc2)c(=O)n(O)c1=O` yielded an Activity of 100%. For `CCc1c(C(=O)c2cc(C)cc(C)c2)n(COCc2ccccc2)c(=O)n(O)c1=O`, the Activity was 100%. In the case of `CCc1c(C(=O)c2cc(C)cc(C)c2)n(COCc2ccc(F)cc2)c(=O)n(O)c1=O`, the Activity is reported as 100%. Molecule `CCc1c(C(=O)c2ccccc2)n(COCCc2ccc(F)cc2)c(=O)n(O)c1=O` has an Activity of 100%. With `CCOCn1c(C(=O)c2cc(C)cc(C)c2)c(CC)c(=O)n(O)c1=O` the Activity was 100%.

System: Human immunodeficiency virus 1
Experiment: Antiviral activity against HIV-1 3B infected in human CEM-SS cells
Format: functional, organism-based
Conditions: Human immunodeficiency virus 1, 3B
Molecule `CCOCn1c(C(=O)c2ccccc2)c(CC)c(=O)n(O)c1=O` has an EC50 of 2.3 µM. In the case of `CCc1c(C(=O)c2ccccc2)n(COCc2ccccc2)c(=O)n(O)c1=O`, the EC50 is reported as 1.4 µM. Molecule `CCc1c(C(=O)c2ccccc2)n(COCc2ccc(F)cc2)c(=O)n(O)c1=O` has an EC50 of 2 µM. `CCc1c(C(=O)c2cc(C)cc(C)c2)n(COCc2ccccc2)c(=O)n(O)c1=O` showed an EC50 of 0.061 µM. With `CCc1c(C(=O)c2cc(C)cc(C)c2)n(COCc2ccc(F)cc2)c(=O)n(O)c1=O` the EC50 was 0.36 µM. Work on `CCc1c(C(=O)c2ccccc2)n(COCCc2ccc(F)cc2)c(=O)n(O)c1=O` yielded an EC50 of 0.34 µM. With `CCOCn1c(C(=O)c2cc(C)cc(C)c2)c(CC)c(=O)n(O)c1=O` the EC50 was 0.03 µM.

Biological target: T1, Human immunodeficiency virus type 1 integrase (Human immunodeficiency virus 1, UniProt Q7ZJM1)
T1 sequence (Q7ZJM1 whole entry): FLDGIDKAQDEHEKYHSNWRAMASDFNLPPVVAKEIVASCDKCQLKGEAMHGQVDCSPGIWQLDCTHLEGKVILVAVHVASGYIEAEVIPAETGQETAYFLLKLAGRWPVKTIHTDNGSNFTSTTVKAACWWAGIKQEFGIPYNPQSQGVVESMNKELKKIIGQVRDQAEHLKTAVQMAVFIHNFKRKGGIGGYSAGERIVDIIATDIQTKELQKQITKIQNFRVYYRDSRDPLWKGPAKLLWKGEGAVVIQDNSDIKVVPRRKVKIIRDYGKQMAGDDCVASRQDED
Experiment: Inhibition of HIV1 integrase strand transfer activity
Conditions: not given
In the case of `CCOCn1c(C(=O)c2ccccc2)c(CC)c(=O)n(O)c1=O`, the IC50 is reported as > 111 µM. Molecule `CCc1c(C(=O)c2ccccc2)n(COCc2ccccc2)c(=O)n(O)c1=O` has an IC50 of 37 µM. `CCc1c(C(=O)c2cc(C)cc(C)c2)n(COCCc2ccc(F)cc2)c(=O)n(O)c1=O` showed an IC50 of 7 µM. In the case of `CCc1c(C(=O)c2ccccc2)n(COCc2ccc(F)cc2)c(=O)n(O)c1=O`, the IC50 is reported as 25 µM. Molecule `CCc1c(C(=O)c2cc(C)cc(C)c2)n(COCc2ccccc2)c(=O)n(O)c1=O` has an IC50 of 41 µM. With `CCc1c(C(=O)c2cc(C)cc(C)c2)n(COCc2ccc(F)cc2)c(=O)n(O)c1=O` the IC50 was 21 µM. In the case of `CCc1c(C(=O)c2ccccc2)n(COCCc2ccc(F)cc2)c(=O)n(O)c1=O`, the IC50 is reported as 4.1 µM. In the case of `CCOCn1c(C(=O)c2cc(C)cc(C)c2)c(CC)c(=O)n(O)c1=O`, the IC50 is reported as > 111 µM.

Biological target: T1, Human immunodeficiency virus type 1 integrase
Experiment: Inhibition of HIV1 integrase 3'-end processing activity
Conditions: not given
With `CCOCn1c(C(=O)c2ccccc2)c(CC)c(=O)n(O)c1=O` the IC50 was > 111 µM. In the case of `CCc1c(C(=O)c2ccccc2)n(COCc2ccccc2)c(=O)n(O)c1=O`, the IC50 is reported as > 111 µM. For `CCc1c(C(=O)c2cc(C)cc(C)c2)n(COCCc2ccc(F)cc2)c(=O)n(O)c1=O`, the IC50 was > 111 µM. With `CCc1c(C(=O)c2ccccc2)n(COCc2ccc(F)cc2)c(=O)n(O)c1=O` the IC50 was > 111 µM. For `CCc1c(C(=O)c2cc(C)cc(C)c2)n(COCc2ccccc2)c(=O)n(O)c1=O`, the IC50 was > 111 µM. For `CCc1c(C(=O)c2cc(C)cc(C)c2)n(COCc2ccc(F)cc2)c(=O)n(O)c1=O`, the IC50 was > 111 µM. For `CCc1c(C(=O)c2ccccc2)n(COCCc2ccc(F)cc2)c(=O)n(O)c1=O`, the IC50 was > 111 µM. With `CCOCn1c(C(=O)c2cc(C)cc(C)c2)c(CC)c(=O)n(O)c1=O` the IC50 was > 111 µM.

Biological target: Human immunodeficiency virus type 1 reverse transcriptase (Human immunodeficiency virus 1, UniProt Q72547)
Experiment: Inhibition of HIV-1 reverse transcriptase
Conditions: not given
`CCOCn1c(C(=O)c2ccccc2)c(CC)c(=O)n(O)c1=O` showed an IC50 of 43 µM. `CCc1c(C(=O)c2ccccc2)n(COCc2ccccc2)c(=O)n(O)c1=O` showed an IC50 of 14 µM. For `CCc1c(C(=O)c2cc(C)cc(C)c2)n(COCCc2ccc(F)cc2)c(=O)n(O)c1=O`, the IC50 was 10 µM. With `CCc1c(C(=O)c2ccccc2)n(COCc2ccc(F)cc2)c(=O)n(O)c1=O` the IC50 was 23 µM. With `CCc1c(C(=O)c2cc(C)cc(C)c2)n(COCc2ccccc2)c(=O)n(O)c1=O` the IC50 was 1 µM. Molecule `CCc1c(C(=O)c2cc(C)cc(C)c2)n(COCc2ccc(F)cc2)c(=O)n(O)c1=O` has an IC50 of 7.6 µM. For `CCOCn1c(C(=O)c2cc(C)cc(C)c2)c(CC)c(=O)n(O)c1=O`, the IC50 was 0.5 µM.

System: CEM-SS
Experiment: Cytotoxicity against human CEM-SS cells
Format: cell-based
Conditions: not given
In the case of `CCOCn1c(C(=O)c2ccccc2)c(CC)c(=O)n(O)c1=O`, the CC50 is reported as 94 µM. For `CCc1c(C(=O)c2ccccc2)n(COCc2ccccc2)c(=O)n(O)c1=O`, the CC50 was > 100 µM. For `CCc1c(C(=O)c2ccccc2)n(COCc2ccc(F)cc2)c(=O)n(O)c1=O`, the CC50 was > 100 µM. `CCc1c(C(=O)c2cc(C)cc(C)c2)n(COCc2ccccc2)c(=O)n(O)c1=O` gave a CC50 of 33 µM. For `CCc1c(C(=O)c2cc(C)cc(C)c2)n(COCc2ccc(F)cc2)c(=O)n(O)c1=O`, the CC50 was 28 µM. With `CCc1c(C(=O)c2ccccc2)n(COCCc2ccc(F)cc2)c(=O)n(O)c1=O` the CC50 was > 100 µM. Molecule `CCOCn1c(C(=O)c2cc(C)cc(C)c2)c(CC)c(=O)n(O)c1=O` has a CC50 of 77 µM.

System: not listed separately
Experiment: Therapeutic index, ratio of CC50 for human CEM-SS cells to EC50 for HIV-1 3B infected in human CEM-SS cells
Format: cell-based
Conditions: CEM-SS cells (uninfected, and infected with HIV-1 3B)
Molecule `CCOCn1c(C(=O)c2ccccc2)c(CC)c(=O)n(O)c1=O` has a selectivity ratio of 41. In the case of `CCc1c(C(=O)c2ccccc2)n(COCc2ccccc2)c(=O)n(O)c1=O`, the selectivity ratio is reported as > 71. With `CCc1c(C(=O)c2ccccc2)n(COCc2ccc(F)cc2)c(=O)n(O)c1=O` the selectivity ratio was > 50. `CCc1c(C(=O)c2cc(C)cc(C)c2)n(COCc2ccccc2)c(=O)n(O)c1=O` gave a selectivity ratio of 540. Molecule `CCc1c(C(=O)c2cc(C)cc(C)c2)n(COCc2ccc(F)cc2)c(=O)n(O)c1=O` has a selectivity ratio of 78. For `CCc1c(C(=O)c2ccccc2)n(COCCc2ccc(F)cc2)c(=O)n(O)c1=O`, the selectivity ratio was > 290. For `CCOCn1c(C(=O)c2cc(C)cc(C)c2)c(CC)c(=O)n(O)c1=O`, the selectivity ratio was 2600.
